Source: patent publication US6465663B2, “O- or S-substituted tetrahydronaphthalene derivatives having retinoid and/or retinoid antagonist-like biological activity” (Allergan, Inc., priority 1996, dated 2002)

Key:
[1] = target: T1, RARβ (Homo sapiens, UniProt P10826); experiment: Ligand binding assay
T1 sequence (P10826 1-455): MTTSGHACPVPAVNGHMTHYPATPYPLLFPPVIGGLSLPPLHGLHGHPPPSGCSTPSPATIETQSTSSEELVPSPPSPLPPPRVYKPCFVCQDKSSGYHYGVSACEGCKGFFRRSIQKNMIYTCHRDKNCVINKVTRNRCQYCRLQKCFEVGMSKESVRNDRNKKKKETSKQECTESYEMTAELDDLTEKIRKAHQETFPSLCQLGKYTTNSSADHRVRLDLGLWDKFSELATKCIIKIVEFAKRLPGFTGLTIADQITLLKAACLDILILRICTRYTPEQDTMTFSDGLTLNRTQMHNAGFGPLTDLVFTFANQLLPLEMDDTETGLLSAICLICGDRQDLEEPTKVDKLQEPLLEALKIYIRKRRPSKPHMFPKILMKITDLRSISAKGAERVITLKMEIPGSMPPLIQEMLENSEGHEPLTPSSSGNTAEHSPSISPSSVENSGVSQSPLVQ
From the text: (§1) Other assays described below, measure the ability of the compounds of the present invention to bind to, and/or activate various retinoid receptor subtypes. When in these assays a compound binds to a given receptor subtype and activates the transcription of a reporter gene through that subtype, then the compound is considered an agonist of that receptor subtype. […] In the below described assays the ability of the compounds to bind to RARα, RARβ, RARγ, RXRα, RXRβ and RXRΓ receptors, and the ability or inability of the compounds to activate transcription of a reporter gene through these receptor subtypes can be tested.
(§2) A holoreceptor transactivation assay and a ligand binding assay which measure the antagonist/agonist like activity of the compounds of the invention, or their ability to bind to the several retinoid receptor subtypes, respectively, are described in published PCT Application No. WO WO93/11755 (particularly on pages 30-33 and 37-41) published on Jun. 24, 1993, the specification of which is also incorporated herein by reference. A description of the holoreceptor transactivation assay is also provided below.
(§3) CV1 cells (5,000 cells/well) were transfected with an RAR reporter plasmid MTV-TREp-LUC (50 ng) along with one of the RAR expression vectors (10 ng) in an automated 96-well format by the calcium phosphate procedure of Heyman et al. Cell 68, 397-406, (1992). For RXRα and RXRγ transactivation assays, an RXR-responsive reporter plasmid CRBPII-tk-LUC (50 ng) along with the appropriate RXR expression vectors (10 ng) was used substantially as described by Heyman et al. above, and Allegretto et al. J. Biol. Chem. 268, 26625-26633. For RXRβ transactivation assays, an RXR-responsive reporter plasmid CPRE-tk-LUC ([…]) along with RXRβ expression vector ([…]) was used as described in above. These reporters contain DRI elements from human CRBPII and certain DRI elements from promoter, respectively. (see Mangelsdorf et al. The Retinoids: Biology, Chemistry and Medicine, pp 319-349, Raven Press Ltd., New York and Heyman et al., cited above) (1, 8). A β-galactosidase (50 ng) expression vector was used as an internal control in the transfections to normalize for variations in transfection efficiency. The cells were transfected in triplicate for 6 hours, followed by incubation with retinoids for 36 hours, and the extracts were assayed for luciferase and β-galactosidase activities. The detailed experimental procedure for holoreceptor transactivations has been described in Heyman et al. above, and Allegretto et al. cited above. The results obtained in this assay are expressed in EC50 numbers, as they are also in the chimeric receptor transactivation assay. The Heyman et al. Cell 68, 397-406, Allegretto et al. J. Biol. Chem. 268, 26625-26633, and Mangelsdorf et al. The Retinoids: Biology, Chemistry and Medicine, pp 319-349, Raven Press Ltd., New York, are expressly incorporated herein by reference. The results of ligand binding assay are expressed in Kd numbers. (See Cheng et al. Biochemical Pharmacology Vol. 22 pp 3099-3108, expressly incorporated herein by reference.)

[2] = target: T2, RARγ (Homo sapiens, UniProt P13631); experiment: Ligand binding assay
T2 sequence (P13631 1-454): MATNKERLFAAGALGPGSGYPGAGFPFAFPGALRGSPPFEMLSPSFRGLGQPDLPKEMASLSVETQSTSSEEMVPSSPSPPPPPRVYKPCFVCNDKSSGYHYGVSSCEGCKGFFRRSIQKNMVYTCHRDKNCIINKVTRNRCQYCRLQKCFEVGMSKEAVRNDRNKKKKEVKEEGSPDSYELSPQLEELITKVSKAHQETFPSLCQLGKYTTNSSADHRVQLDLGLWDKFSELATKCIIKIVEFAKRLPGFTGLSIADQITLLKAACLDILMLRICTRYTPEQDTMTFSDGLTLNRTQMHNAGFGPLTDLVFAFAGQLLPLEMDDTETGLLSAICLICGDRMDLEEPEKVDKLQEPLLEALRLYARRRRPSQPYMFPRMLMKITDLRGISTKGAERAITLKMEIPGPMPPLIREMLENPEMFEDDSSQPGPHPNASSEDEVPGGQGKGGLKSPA
From the text: as §1, §2, §3

[3] = target: T3, RARα (Homo sapiens, UniProt P10276); experiment: Ligand binding assay
T3 sequence (P10276 1-462): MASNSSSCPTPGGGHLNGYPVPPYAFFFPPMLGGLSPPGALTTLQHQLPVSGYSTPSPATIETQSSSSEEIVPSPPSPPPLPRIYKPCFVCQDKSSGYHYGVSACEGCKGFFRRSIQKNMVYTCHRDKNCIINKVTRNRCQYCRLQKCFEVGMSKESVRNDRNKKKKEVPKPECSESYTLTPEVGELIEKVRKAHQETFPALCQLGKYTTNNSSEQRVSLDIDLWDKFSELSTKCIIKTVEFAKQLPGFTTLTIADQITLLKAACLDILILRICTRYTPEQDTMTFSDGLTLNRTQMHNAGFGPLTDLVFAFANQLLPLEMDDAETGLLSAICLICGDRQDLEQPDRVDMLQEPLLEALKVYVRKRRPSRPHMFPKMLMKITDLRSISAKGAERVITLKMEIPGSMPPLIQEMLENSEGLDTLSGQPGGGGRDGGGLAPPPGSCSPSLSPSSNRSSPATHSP
From the text: as §1, §2, §3

[4] = system: ornithine decarboxylase (ODC); experiment: ODC assay: inhibition of TPA induction of ornithine decarboxylase activity; assay type: in vivo; conditions: concentration of the test compound which causes 80% inhibition in the ODC assay; cell marked (IC80)
From the text: A classic measure of retinoic acid activity involves measuring the effects of retinoic acid on ornithine decarboxylase. […] That reference discloses that ornithine decarboxylase (ODC) activity increased precedent to polyamine biosynthesis. It has been established elsewhere that increases in polyamine synthesis can be correlated or associated with cellular proliferation. Thus, if ODC activity could be inhibited, cell hyperproliferation could be modulated. Although all cases for ODC activity increases are unknown, it is known that 12-0-tetradecanoylphorbol-13-acetate (TPA) induces ODC activity. Retinoic acid inhibits this induction of ODC activity by TPA.

Row | SMILES | Kd [1] [nM] | Kd [2] [nM] | Kd [3] [nM] | IC80 [4]
1 | CC1(C)CCC2(SCCCS2)c2cc(/C=C/c3ccc(C(=O)O)cc3)ccc21 [Compound A24] | 92 | 259 | 283 | –
2 | CC1(C)CC=C(Sc2ccccc2)c2cc(/C=C/c3ccc(C(=O)O)cc3)ccc21 [Compound A18, (E)-4-[2-(5,6-dihydro-5,5-dimethyl-8-(phenylthio)-naphthalen-2-yl)ethenyl] benzoic acid] | 193 | 162 | 538 | –
3 | CCO/N=C1\CCC(C)(C)c2ccc(/C(C)=C/C=C/C(C)=C/C(=O)O)cc21 [Compound C25, 7-[4,4-dimethyl-3,4-dihydro-1(2H)-anti-(O-ethyl oxime)-naphth-7-yl]3,7-dimethyl-hepta-2(E),4(E),6(E)-trienoic Acid] | 12 | 42 | 19 | –
4 | CC1(C)CCC(=O)c2cc(/C=C/c3ccc(C(=O)O)cc3)ccc21 [Compound A2a, (E)-4-[2-(5,6,7,8-tetrahydro-5,5-dimethyl-8-oxo-2-naphthalenyl)ethenyl]-benzoic acid] | 219 | 421 | 150 | –
5 | CCC(CC)=C1CCC(C)(C)c2ccc(/C=C/c3ccc(C(=O)O)cc3)cc21 [Compound A28, (E)-4-[2-(5,6-Dihydro-5,5-dimethyl-8(7H)-(pentyliden-3-yl)-naphthalen-2-yl)ethenyl]benzoic acid] | 3 | 42 | 4 | –

Further lines, with some results ahead:

Row | Kd [1] [nM] | Kd [2] [nM] | Kd [3] [nM] | SMILES | IC80 [4]
6 | 531 | 901 | 394 | CC(C)(C)C1=CCC(C)(C)c2ccc(C(=O)Nc3ccc(C(=O)O)cc3)cc21 [Compound E80, 4-[(5,5-dimethyl-5,6-dihydro-8-(1,1-dimethylethyl)-2-naphthalenyl)carboxamido]-benzoic Acid] | –
7 | 200 | 530 | 235 | CC1(C)CC=C(c2cccs2)c2ccc(C(=O)C=Cc3ccc(C(=O)O)cc3)cc21 [Compound D34, 4-[3-oxo-3-(7,8-dihydro-5-(2-thienyl)-8,8-dimethyl-2-naphthalenyl)-1-propenyl]-benzoic acid] | 4.3 (IC80) nmols
8 | 35 | 455 | 36 | CC(C)=C1CCC(C)(C)c2ccc(C(=O)Oc3ccc(C(=O)O)cc3)cc21 [Compound E14] | –
9 | 378 | > 1000 | 192 | CC(C)=C1CCC(C)(C)c2ccc(C(=O)Nc3ccc(C(=O)O)cc3)cc21 [Compound E17] | –
10 | 226 | > 1000 | > 1000 | COCOC1CCC(C)(C)c2ccc(N=Nc3ccc(C(=O)O)cc3)cc21 (racemic) [Compound D7, (+/−) 4-[(5,5-Dimethyl-8-(methoxymethyloxy)-5,6,7,8-tetrahydronaphthalen-2-yl)azo]benzoic Acid] | –
11 | 535 | > 1000 | 551 | CC1(C)CC=C(S(=O)(=O)c2ccccc2)c2cc(C(=O)Oc3ccc(C(=O)O)cc3)ccc21 [Compound E27] | –
12 | 302 | 375 | 77 | CC1(C)CCC(OC2CCCCO2)c2cc(C(=O)Oc3ccc(C(=O)O)cc3)ccc21 (single isomer, unassigned) [Compound E67, 4-[5,6,7,8-tetrahydro-8(S or R)-(2′(S or R)tetrahydropyranoxy)-5,5-dimethyl-2-napthoyloxy]benzoic Acid] | –
